Paper PMC8839821, “Potential Mechanisms Involved in the Protective Effect of Dicaffeoylquinic Acids from Artemisia annua L. Leaves against Diabetes and Its Complications” (Molecules, 2022)

Key:
α-glucosidase = test: α-Glucosidase inhibition assay (inhibitor screening kit); type: biochemical; conditions: mean ± SEM of two replicates
Experimental: The in vitro α-glucosidase inhibitory potential of ART-CQ and its isolated compounds was evaluated using the α-Glucosidase Inhibitor Screening Kit (Biovision, Milpitas, CA, USA). […] After incubation, 20 µL of the α-Glucosidase Substrate in buffer was added and the absorbance was measured kinetically at 410 nm for 60 min. The polar fraction was tested in concentrations (10, 50, 100, 200 µg/mL) while the concentrations of the isolated compounds were (5, 20, 50, 100 µg/mL).
The change in absorbance is directly proportional to enzyme activity and the presence of enzyme inhibitor reduces the formation of the end product with the resultant decrease in absorbance.

[1] = biological target: T1, Dipeptidyl Peptidase IV (DPPIV) enzyme (Homo sapiens, UniProt P27487); test: Dipeptidyl peptidase IV (DPPIV) inhibition assay (fluorometric inhibitor screening kit); type: biochemical; conditions: mean ± SEM of two replicates; read-out: DPPIV inhibitory activity IC50 (converted)
T1 construct: purchased Abnova
Experimental: The dipeptidyl peptidase IV (DPPIV) inhibition effectiveness of the polar fraction of Artemisia annua (ART-CQ) and the isolated compounds was determined fluorometrically by using the DPPIV Inhibitor Screening Kit (Abnova, Taipei, Taiwan) following the manufacturer’s protocol. […] Then the enzyme substrate solution was added, and the […] was measured at Ex/Em = 360/460 nm. The plate was reincubated for 30 min at 37 °C and the […] was recorded again. Vidagliptin was used as the reference standard. The difference between the two readings was estimated and the IC50 was determined.

[2] = test system: human skin fibroblast (HSF) cells; test: In vitro cell viability / cytotoxicity (SRB assay); type: cell-based; conditions: 72 h incubation, highest tested concentration 100 µg/mL
Experimental: (§1) Human Skin Fibroblasts (HSF) cell line was obtained from Nawah Scientific Inc. (Mokatam, Cairo, Egypt). Cells were kept in DMEM media with […] of streptomycin, 100 units/mL of penicillin and 10% of heat-inactivated fetal bovine serum in humidified, 5% (v/v) CO2 atmosphere at 37 °C.
Effect of the alcoholic extract and the isolated compounds on cell viability was evaluated to assess their safety utilizing SRB assay. An aliquot of 100 µL cell suspension (5 × 10^3 cells) was incubated with 100 μL media containing the test samples at concentrations (0.01, 0.1, 1, 10, 100 µg/mL) for 72 h. Media was removed and 150 μL of 10% TCA was added for fixing the cells that was further incubated at 4 °C for 1h. Cells were then washed with distilled water and 70 μL 0.4% SRB solution was added, and plates were placed in dark for 10 min. Plates were then washed with 1% acetic acid and left to dry overnight. 150 μL of 10 mM TRIS was then added and the absorbance was measured at 540 nm using a BMG LABTECH®-FLUOstar Omega microplate reader (Ortenberg, Germany). Experiments were done in triplicates and the IC50 was calculated.

[3] = Ferric Reducing Antioxidant Power (FRAP) assay; conditions: ART-CQ 50 µg/mL, isolated compounds 25 µg/mL
Experimental: The DetectX® Ferric Reducing Antioxidant Power (FRAP™) Detection Kit (Arbor assays, Ann Arbor, MI, USA) was used to estimate the antioxidant and ferric reducing activity of the polar fraction of A. annua and the isolated compounds in accordance with the method of Benzie and Strain (1996). ART-CQ was utilized in a concentration of (50 µg/mL) while the isolated compounds were used in a concentration of (25 µg/mL). Ferric chloride standard and ascorbic acid control were used in the assay and the FRAP values were estimated and presented as µM FeCl2.

[4] = DPPH radical scavenging assay; conditions: mean ± SEM of two replicates
Experimental: 2,2-diphenyl-1-picrylhydrazil (DPPH) Radical Scavenging Assay was exploited to assess the free radical scavenging potential of ART-CQ and the pure compounds according to Motaal et al., 2011 [52]. Different concentrations of ART-CQ (8, 16, 48, 64 µg/mL) and the isolated compounds (2, 4, 12, 16 µg/mL) were used. Ascorbic acid was used as the standard positive control and water was used in place of samples as a blank. The IC50 value for the test samples and standard was evaluated.

α-amylase enzyme = biological target: T2, α-amylase enzyme (Sus scrofa, UniProt P00690); test: α-Amylase inhibition assay (CNPG3 hydrolysis, kinetic); type: biochemical, porcine pancreas
T2 construct: Alpha-amylase (porcine pancreas); purchased Sigma-Aldrich; host or cells: porcine pancreas
T2 sequence (P00690 16-511): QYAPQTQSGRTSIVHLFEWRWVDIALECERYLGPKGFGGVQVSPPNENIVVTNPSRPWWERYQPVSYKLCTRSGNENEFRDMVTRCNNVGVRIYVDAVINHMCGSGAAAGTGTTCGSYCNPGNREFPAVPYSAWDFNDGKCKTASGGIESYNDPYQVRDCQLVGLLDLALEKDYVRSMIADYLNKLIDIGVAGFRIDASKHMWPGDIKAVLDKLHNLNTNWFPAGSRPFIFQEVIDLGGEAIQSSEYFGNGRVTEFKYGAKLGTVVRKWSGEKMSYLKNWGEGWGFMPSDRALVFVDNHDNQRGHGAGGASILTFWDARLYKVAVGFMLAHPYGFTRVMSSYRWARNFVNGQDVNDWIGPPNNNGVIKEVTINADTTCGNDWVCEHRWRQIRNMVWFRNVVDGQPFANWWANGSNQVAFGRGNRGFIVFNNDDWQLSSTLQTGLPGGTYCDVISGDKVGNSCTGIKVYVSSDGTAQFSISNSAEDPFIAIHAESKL
Experimental: Alpha-amylase (porcine pancreas), 2-chloro-4-nitrophenyl-D-maltotrioside (CNPG3) and tetramethylsilane were from Sigma-Aldrich (St. Louis, MO, USA) while the remaining chemicals were from UFC Biotechnology. Spectrophotometric readings were performed using the microplate reader (Anthos Zenyth 200RT, Cambridge, UK). ^1H-NMR (400 MHz) analysis was carried out using Bruker NMR Spectrometer (Bruker, Yokohama, Japan). Spectra were recorded in CD3OD or DMSO-d6 with tetramethylsilane being employed as an internal standard, and chemical shift values were expressed in ppm.
The inhibitory effect of the polar fraction (ART-CQ) and isolated compounds from Artemisia Annua on the activity of α-amylase enzyme was assessed kinetically as previously described. […] The change in absorbance per min is proportional to the enzyme activity. Various concentrations of ART-CQ (10, 50, 100, 200 µg/mL) and isolated compounds (5, 20, 50, 100 µg/mL) were preincubated with the enzyme for 15 min at 37 °C before the addition of CNPG3.

[5] = test system: human skin fibroblast (HSF) cells; test: Scratch wound healing assay; type: cell-based; conditions: for effect on scratch wound healing (in words): tested at 10, 100, 1000 µg/mL; for time to complete wound healing: control healed in 72 h
Experimental: as §1
The wound healing assay was conducted to evaluate the effect of different concentrations of the polar fraction and isolated compounds from Artemisia Annua on the migration ability of HSF cell line using the scratch wound healing assay as previously described. In a coated 12-well plates, cells were seeded at density of 2 × 10^5/well in 5% FBS-DMEM and cultured overnight at 37 °C and 5% CO2. On the following day, horizontal scratches were made into the confluent monolayer and the plates were washed with PBS and treated with fresh media containing the combined polar extract and the isolated compounds in concentrations of 10, 100, 1000 µg/mL. Control wells were done using only plain medium. The plates were incubated at 37 °C and 5% CO2 and images were captured using an inverted microscope at 24, 48 and 72 h time intervals. The acquired images were analyzed by MII ImageView software version 3.7. Experiments were performed in triplicates. Wound width was calculated as the average distance between the edges of the scratches. As cell migration enhanced, the wound width diminishes.

aldose reductase enzyme = aldose reductase enzyme (Homo sapiens, UniProt P15121); test: Aldose reductase inhibition assay (NADPH decrease at 340 nm, screening kit)
Experimental: Aldose reductase inhibitory activity was determined kinetically by measuring the decrease in the absorption of NADPH at 340 nm in a reaction mixture containing, in addition to NADPH, the enzyme, DL-glyceraldehyde and the samples [50]. This was accomplished using the Aldose Reductase Inhibitor Screening Kit (Biovision, Milpitas, CA, USA), in accordance with the manufacturer’s instructions. […] Then 60 μL of NADPH and 90 μL of enzyme solution were added and the plate was incubated in dark for 20 min at 37 °C. Subsequently, 40 μL of DL-glyceraldehyde was pipetted and the absorbance was determined at 340 nm at 37 °C for 90 min.

T1 sequence (P27487 whole entry, species assumed): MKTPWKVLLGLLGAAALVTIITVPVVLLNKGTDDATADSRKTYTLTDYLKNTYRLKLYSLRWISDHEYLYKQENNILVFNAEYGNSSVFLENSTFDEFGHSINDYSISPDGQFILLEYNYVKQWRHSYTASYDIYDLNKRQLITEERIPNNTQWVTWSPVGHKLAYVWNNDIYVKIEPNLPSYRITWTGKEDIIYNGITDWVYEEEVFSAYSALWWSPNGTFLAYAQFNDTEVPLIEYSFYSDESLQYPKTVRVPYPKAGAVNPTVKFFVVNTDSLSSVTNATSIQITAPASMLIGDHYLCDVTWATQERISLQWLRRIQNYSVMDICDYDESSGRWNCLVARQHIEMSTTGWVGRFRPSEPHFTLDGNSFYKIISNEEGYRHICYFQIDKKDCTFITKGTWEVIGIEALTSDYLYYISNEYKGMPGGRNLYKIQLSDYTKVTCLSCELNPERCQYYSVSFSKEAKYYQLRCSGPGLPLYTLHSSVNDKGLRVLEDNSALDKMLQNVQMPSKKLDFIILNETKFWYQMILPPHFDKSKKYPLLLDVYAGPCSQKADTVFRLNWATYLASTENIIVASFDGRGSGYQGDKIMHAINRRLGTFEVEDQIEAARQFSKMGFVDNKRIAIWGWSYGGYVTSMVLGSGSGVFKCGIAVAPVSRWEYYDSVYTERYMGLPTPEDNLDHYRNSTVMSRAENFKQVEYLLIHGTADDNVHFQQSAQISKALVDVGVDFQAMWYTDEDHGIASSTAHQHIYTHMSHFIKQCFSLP

| SMILES | α-glucosidase inhibitory activity IC50 (α-glucosidase) | IC50 [1] | IC50 [2] | FRAP value relative to that of ascorbic acid [3] | DPPH free radical scavenging, concentration for 50% scavenging (IC50) [4] | α-amylase inhibitory effect (in words) (α-amylase enzyme) | effect on scratch wound healing (in words) [5] | wound width as % of the original wound width at 24 h ([5]; 10 µg/mL, 24 h, control 56%) | time to complete wound healing ([5]; 10 µg/mL) | IC50 (aldose reductase enzyme) | IC50 (α-amylase enzyme; mean ± SEM of two replicates) | wound width as % of the original wound width at 48 h ([5]; 10 µg/mL, 48 h, control 37%) |
| --- | --- | --- | --- | --- | --- | --- | --- | --- | --- | --- | --- | --- |
| O=C(C=Cc1ccc(O)c(O)c1)OC1CC(O)(C(=O)O)CC(OC(=O)C=Cc2ccc(O)c(O)c2)C1O (stereo not drawn) [Compound 1, 3,5-dicaffeoylquinic acid] | 157.13 ± 6.82 µg/mL | 0.436 µM | > 100 µg/mL | about 8 times that of the ascorbic acid | 30.94 ± 4.61 µg/mL | no α-amylase inhibitory effect | inhibited cell migration and wound healing |  |  |  |  |  |
| O=C(C=Cc1ccc(O)c(O)c1)OC1CC(O)(C(=O)O)CC(O)C1OC(=O)C=Cc1ccc(O)c(O)c1 (stereo not drawn) [Compound 2, 4,5-dicaffeoylquinic acid] |  | 4.4 µM | > 100 µg/mL |  | 14.94 ± 0.60 µg/mL |  | improved the wound healing | 40% | 48 h |  |  |  |
| COC(=O)C1(O)CC(O)C(OC(=O)C=Cc2ccc(O)c(O)c2)C(OC(=O)C=Cc2ccc(O)c(O)c2)C1 (stereo not drawn) [Compound 3, 3,4-dicaffeoylquinic acid methyl ester] | 250.42 ± 8.44 µg/mL | 1.08 µM | > 100 µg/mL | more than 30 times that of the ascorbic acid | 7.78 ± 0.24 µg/mL |  | improved the wound healing |  | 72 h | 16.8 µM | 2.85 µM | 23% |
| O=C1O[C@H]([C@@H](O)CO)C(O)=C1O [ascorbic acid, reference compound] |  |  |  |  | 5.50 ± 0.30 µg/mL |  |  |  |  |  |  |  |
